Values joined by “and” are separate entries in the source; they are usually repeats but may differ in a detail not shown here. Identical values can stand only once. Like-named read-outs stand apart in the source and are kept apart here.
What was measured:
AcR5b-acylase = test: Activity of the AcR5b-acylase in the presence of potential enzyme activators and inhibitors; assay type: biochemical, Arthrobacter aurescens AcR5b; conditions: for Relative activity (%), EDTA reactivation: preincubated with 1 mM metal cation, then 10 mM EDTA for 30 min
Protocol: 40 μl of the concentrated enzyme solution from example 4d) are mixed with 360 μl of 1 and 10 mM solutions of the potential activators/inhibitors in 100 mM Tris-HCl buffer, pH 8, and incubated at room temperature for 30 min. These preincubated acylase solutions are used as the enzyme source for activity assays in the presence of the activator/inhibitor (see example 8) in the concentration used for the preincubation. The incubation time is 12 min. For the EDTA reactivation the acylase is first preincubated with the metal cation at 1 mM concentration (see above). After adding EDTA to a final concentration of 10 mM in form of a 110 mM solution in 100 mM Tris-HCl, pH 8, the acylase is preincubated a second time for 30 min., before the standard activity assay is performed.

Ac6-acylase = Ac6-acylase (Rhodococcus (subgen. Prescottella) equi, UniProt A0A3S5Y3Z2); test: Activity of the Ac6-acylase in the presence of potential enzyme activators and inhibitors; assay type: biochemical; conditions: for activity at 10000 µM: read-out: Relative activity (%)
Protocol: After an incubation at 30° C. for a time period allowing the liberation of 0 to 3 mM of 1-phenylethylamine 400 μl of ice cooled acetone are added to stop the reaction. The tube is mixed vigorously, put on ice for about 15 min., and then is centrifuged for 4 min at 11500 rpm in a Biofuge 15 (Heraeus Sepatech, Osterode Germany). The supernatant is subjected to quantitative HPLC analysis. If activity assays contain crude extracts of cells grown in the presence of N-acetyl-1-phenylethylamine a control assay without substrate has to be prepared in parallel in order to determine the 1-phenylethylamine content of the crude extract. For HPLC analysis sample volumes of 20 μl are injected onto a RP-8 column (LiChroCART 125-4, LiChrospher 100 RP-8 ([…]), guard column: LiChroCART 4-4, LiChrospher 100 RP-8 ([…]), Merck Co., Darmstadt Germany). The following gradient with a flow rate of 1.25 ml/min. is applied for the separation of the substrate N-acetyl-1-phenylethylamine and the product 1-phenylethylamine:
One unit (U) of acylase activity is defined as the amount of enzyme catalyzing the liberation of 1 μmol of 1-phenylethylamine per minute. The acylase concentration in the samples is calculated according to the following formula: […]
In the presence of various potential enzyme activators and inhibitors activity assays are performed according to the scheme given in example 1 by applying the following conditions and final concentrations:
(S)-N-acetyl-1-phenylethylamine 20 mM
Purified acylase from example 4 c 0.02 U/ml
Incubation time 120 min.

[1] = test system: Rhodococcus globerulus K1/1 acylase; assay type: biochemical
Protocol: The standard assay for K1/1-acylase activity used for monitoring the purification and for the enzymological characterization is performed by mixing 20 μl of an enzyme sample with 380 μl of a 5.55 mM solution of (S)-2-acetylamino-1-phenyl-4-pentene in 69 mM potassium phosphate buffer, pH 7, and incubating at 23° C. The dilution of the acylase and the incubation time are chosen so that not more than 1.3 mM of product are formed. The reaction is stopped by addition of 800 μl ice cold methanol. After centrifugation for 4 min at 11500 rpm in a Biofuge 15 (Heraeus Sepatech, Osterode, Germany) the supernatant is subjected to quantitative HPLC analysis (see example 1).
27.1. Activity of the Rhodococcus globerulus K1/1 acylase in the presence of potential enzyme activators and inhibitors: […]

[2] = biological target: T1, acylase from Rhodococcus equi Ac6 (Rhodococcus (subgen. Prescottella) equi, UniProt A0A3S5Y3Z2); test: Enzymatic hydrolysis of racemic amides with partially purified acylase from Rhodococcus equi Ac6; assay type: biochemical; parameters: e.e. (R)-Amide: unit not given here; conditions: for Selectivity E: enantioselectivity of the hydrolysis; for e.e. (S)-Amine: formed amine, analysed as acetamide; for e.e. (R)-Amide: unconverted amide, chiral HPLC
T1 construct: N-terminus […]
Protocol: (§1) To 10 ml of a 20 mM solution of each of the racemic amides shown below 1 in 0.1 M phosphate buffer pH 7.0, 5 ml (1.3 units) of the enzyme is added and the solutions are shaken at 100 rpm and 30° C. [drawing 10] [drawing 11]
(§2) When the conversion reaches about 50% (checked by HPLC) the solutions are acidified to pH 2 by adding 1 N HCl and extracted three times with dichloromethane to obtain the unconverted amides. The aqueous layers are neutralized with 1 N NaOH solution and extracted again three times with dichloromethane to recover the formed amines. Both organic phases are dried with MgSO4, filtered and the solvent is distilled off. The amides are used directly for optical purity determinations (HPLC), whereas the obtained amines are converted to the acetamides by adding 100 μl triethylamine and 100 μl acetic anhydride to each sample and then analyzed for the optical purity by "chiral" HPLC.
The experiments are carried out in the same manner as described in example 22.

[3] = test system: acylase from Arthrobacter aurescens Ac5R; test: Enzymatic hydrolysis of racemic amides with highly purified acylase from Arthrobacter aurescens Ac5R; assay type: biochemical; conditions: for Selectivity E: enantioselectivity of the hydrolysis; for e.e. (R)-Amine: formed amine, analysed as acetamide by chiral HPLC; for e.e. (S)-Amide: unconverted amide, chiral HPLC
Protocol: as §1, §2

[4] = compound 1 mM, 30 min preincubation, Tris-HCl pH 8, none = 100
[5] = compound 10 mM, 30 min preincubation, values printed in brackets: precipitates formed, none = 100
[6] = compound 1 mM, 20 mM (S)-N-acetyl-1-phenylethylamine, Tris-HCl pH 8, 120 min, none = 100
[7] = compound 10 mM, values in brackets: precipitates formed during the assay, none = 100

Sequence of Ac6-acylase (A0A3S5Y3Z2 entry or part of it): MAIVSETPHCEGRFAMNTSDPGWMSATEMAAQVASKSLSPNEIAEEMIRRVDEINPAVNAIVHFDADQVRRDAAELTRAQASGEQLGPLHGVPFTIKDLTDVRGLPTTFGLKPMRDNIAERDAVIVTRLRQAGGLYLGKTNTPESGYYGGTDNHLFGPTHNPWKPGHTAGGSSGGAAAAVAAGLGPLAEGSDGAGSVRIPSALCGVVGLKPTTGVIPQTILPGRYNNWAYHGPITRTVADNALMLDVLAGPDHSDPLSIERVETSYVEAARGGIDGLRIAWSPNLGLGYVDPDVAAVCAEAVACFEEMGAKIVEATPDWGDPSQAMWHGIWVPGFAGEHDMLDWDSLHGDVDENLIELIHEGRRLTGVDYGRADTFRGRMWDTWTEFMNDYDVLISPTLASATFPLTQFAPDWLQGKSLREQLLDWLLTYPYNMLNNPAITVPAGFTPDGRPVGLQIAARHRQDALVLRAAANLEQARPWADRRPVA
T1 sequence (A0A3S5Y3Z2 1-487): as the sequence (A0A3S5Y3Z2 entry or part of it) above

Structure (SMILES)	Relative activity (%) (AcR5b-acylase; [4])	Relative activity (%) (AcR5b-acylase; [5])	Relative activity (%) (Ac6-acylase; [6])	Relative activity (%) (Ac6-acylase; [7])	Relative activity (%) ([1]; compound 1 mM, none = 100)	Relative activity (%) ([1]; compound 10 mM, none = 100)	other results
[Cl][Pb][Cl] [PbCl2]	79	9	95	99			Relative activity (%), EDTA reactivation (AcR5b-acylase): 102%
[Cl][Fe]([Cl])[Cl] [FeCl3]	121	132	101	92	101	37	
CC(=O)NC(C)CCc1ccccc1 (racemic) [Substrate 9a]							Selectivity E [2]: 230; e.e. (S)-Amine [2]: 92.1; e.e. (R)-Amide [2]: > 99.9
[Cl-].[Cl-].[Mg+2] [MgCl2]	103	93	90	99	101	87	
[Cl][V]([Cl])[Cl] [VCl3]	96	106	89	94			
[Ca+2].[Cl-].[Cl-] [CaCl2]	92	88	90	83	89	85	
CC(=O)NC1CCc2ccccc21 (racemic) [Substrate 5a]							Selectivity E [2]: 65; e.e. (S)-Amine [2]: 88.2; e.e. (R)-Amide [2]: 96.7; Selectivity E [3]: 180; e.e. (R)-Amine [3]: 95.7; e.e. (S)-Amide [3]: 96.1
CC(=O)NC(C)c1ccc2ccccc2c1 (racemic) [Substrate 7a]							Selectivity E [2]: 88; e.e. (S)-Amine [2]: 97.4; e.e. (R)-Amide [2]: 16.4
[Cl-].[Cl-].[Zn+2] [ZnCl2]	< 1.5	0	68	47	66	0	Relative activity (%), EDTA reactivation (AcR5b-acylase): 75%
[Cl][Mn][Cl] [MnCl2]	99	60	87	87	94	83	
[Cl][Ni][Cl] [NiCl2]	14	0	40	10	87	80	Relative activity (%), EDTA reactivation (AcR5b-acylase): 85%
CC(=O)NC(C)c1cccc(C#N)c1 (racemic) [Substrate 2a]							Selectivity E [2]: > 500; e.e. (S)-Amine [2]: > 99.9; e.e. (R)-Amide [2]: 85.5; Selectivity E [3]: 60; e.e. (R)-Amine [3]: 91.5; e.e. (S)-Amide [3]: 82.4
CC(=O)NC(C)c1ccc2c(c1)OCO2 (racemic) [Substrate 8a]							Selectivity E [2]: 280; e.e. (S)-Amine [2]: 97.8; e.e. (R)-Amide [2]: 90.1; Selectivity E [3]: 60; e.e. (R)-Amine [3]: 91.5; e.e. (S)-Amide [3]: 82.4
[Cl-].[Cl-].[Co+2] [CoCl2]	26	15	69	83	97	86	Relative activity (%), EDTA reactivation (AcR5b-acylase): 91%
O[C@H](CS)[C@H](O)CS (racemic) [Dithiothreitol]	35	5.4	103		112	77	activity at 10000 µM (Ac6-acylase; [7]): 100%
OCCS [Mercaptoethanol]	115	69	104		106	101	activity at 10000 µM (Ac6-acylase; [7]): 108%
O=S(=O)(F)Cc1ccccc1 [Phenylmethyl-sulfonyl fluoride]	44		0	0			Relative activity (%) ([1]; compound 0.01 mM): 0%; Relative activity (%) ([1]; compound 0.1 mM): 0%; Relative activity (%) (Ac6-acylase; compound 0.01 mM): 17%; Relative activity (%) (Ac6-acylase; compound 0.1 mM): 4.8%
O=C(O)CC(O)(CC(=O)O)C(=O)O [Citrate]	122	100	106		113	133	activity at 10000 µM (Ac6-acylase; [7]): 91%
[Ba+2].[Cl-].[Cl-] [BaCl2]	92	89	95	99			
N[C@@H]1CONC1=O [D-cycloserine]					104	96	
[Cl][Cd][Cl] [CdCl2]	5	0	85	38			Relative activity (%), EDTA reactivation (AcR5b-acylase): 79%
O=C(O)CN(CCN(CC(=O)O)CC(=O)O)CC(=O)O [EDTA]							Relative activity (%) [1]: 99 and 89; Relative activity (%) (AcR5b-acylase): 121; Relative activity (%) (AcR5b-acylase; pH 8): 119; Relative activity (%) (Ac6-acylase; pH 8): 102; activity at 10000 µM (Ac6-acylase): 104%
[Cl][Cu][Cl] [CuCl2]	50	0	88	41	66	50	Relative activity (%), EDTA reactivation (AcR5b-acylase): 86%
NC(=O)CI [Iodoacetamide]	96	29	87		104	67	activity at 10000 µM (Ac6-acylase; [7]): 32%
CC(=O)NC(C)c1ccc(C#N)cc1 (racemic) [Substrate 3a]							Selectivity E [2]: > 500; e.e. (S)-Amine [2]: > 99.9; e.e. (R)-Amide [2]: 97.4; Selectivity E [3]: 320; e.e. (R)-Amine [3]: 95.0; e.e. (S)-Amide [3]: > 99.9
N[C@@H](CCC(=O)N[C@@H](CS)C(=O)NCC(=O)O)C(=O)O [Glutathion, reduced]							Relative activity (%) [1]: 104 and 93; Relative activity (%) (AcR5b-acylase): 112; Relative activity (%) (AcR5b-acylase; pH 8): 113; Relative activity (%) (Ac6-acylase; pH 8): 106; activity at 10000 µM (Ac6-acylase): 102%
O=C(O)c1cc[c]([Hg+])cc1.[OH-] [p-hydroxy-mercuribenzoate]					89	96	
